Several values for one entry are separate records, joined by “and”; a condition that tells them apart may be missing. Equal entries are not always repeated. Inconclusive results and toxic doses are left out. No stated cut-off is given here; in the data, active means T/C of 150% or more; inactive means T/C below 125%.
Test system: L1210 leukemia ip in BDF1 mice, survival T/C
Test: NCI In Vivo Anticancer Drug Screen. Data for tumor model L1210 Leukemia (intraperitoneal) in B6D2F1 (BDF1) mice
Settings: endpoint: mean survival time, higher = longer survival
How it was run: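 In this screen, tumor-bearing mice given compound are compared to those given vehicle, and their survival values are reported as a treated-to-control quotient.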

[1] = dose: 100.0 mg/kg/injection, schedule: Q01DX001 (ip), vehicle: saline
[2] = dose: 100.0 mg/kg/injection, schedule: Q04DX003 (ip), vehicle: saline
[3] = dose: 200.0 mg/kg/injection, schedule: Q01DX001 (ip), vehicle: saline
[4] = dose: 400.0 mg/kg/injection, schedule: Q01DX001 (ip), vehicle: saline
[5] = dose: 400.0 mg/kg/injection, schedule: Q04DX003 (ip), vehicle: saline
[6] = dose: 100.0 mg/kg/injection, schedule: Q01DX009 (ip), vehicle: Klucel (hydroxypropylcellulose) (HPC)
[7] = dose: 200.0 mg/kg/injection, schedule: Q01DX009 (ip), vehicle: Klucel (hydroxypropylcellulose) (HPC)
[8] = dose: 400.0 mg/kg/injection, schedule: Q01DX009 (ip), vehicle: Klucel (hydroxypropylcellulose) (HPC)
[9] = dose: 100.0 mg/kg/injection, schedule: Q04DX003 (ip), vehicle: saline with Tween-80
[10] = dose: 200.0 mg/kg/injection, schedule: Q04DX003 (ip), vehicle: saline with Tween-80
[11] = dose: 400.0 mg/kg/injection, schedule: Q04DX003 (ip), vehicle: saline with Tween-80
[12] = dose: 100.0 mg/kg/injection, schedule: Q01DX001 (ip), vehicle: carboxymethylcellulose (CMC)
[13] = dose: 200.0 mg/kg/injection, schedule: Q01DX001 (ip), vehicle: carboxymethylcellulose (CMC)
[14] = dose: 400.0 mg/kg/injection, schedule: Q01DX001 (ip), vehicle: carboxymethylcellulose (CMC)
[15] = dose: 100.0 mg/kg/injection, schedule: Q04DX002 (ip), vehicle: Klucel (hydroxypropylcellulose) (HPC)
[16] = dose: 200.0 mg/kg/injection, schedule: Q04DX002 (ip), vehicle: Klucel (hydroxypropylcellulose) (HPC)
[17] = dose: 400.0 mg/kg/injection, schedule: Q04DX002 (ip), vehicle: Klucel (hydroxypropylcellulose) (HPC)
[18] = dose: 10.0 mg/kg/injection, schedule: Q01DX001 (ip), vehicle: saline
[19] = dose: 20.0 mg/kg/injection, schedule: Q01DX001 (ip), vehicle: saline

Measured: T/C

CN(C)c1ccc(C2NC(c3ccccc3)c3c(ccc4ccccc34)O2)cc1 (configuration not stated)
inactive: [1] 92 % of control | [2] 90 % of control | [3] 89 % of control | [4] 89 % of control | [5] 90 % of control

CCOC(=O)CNCc1ccc(Cl)c(Cl)c1
inactive: dose: 50.0 mg/kg/injection, schedule: Q04DX003 (ip), vehicle: water 106 % of control | dose: 100.0 mg/kg/injection, schedule: Q04DX003 (ip), vehicle: water 95 % of control and 106 % of control | dose: 200.0 mg/kg/injection, schedule: Q04DX003 (ip), vehicle: water 87 % of control and 92 % of control

CCN(CC)CCSC(=O)C(O)(c1ccccc1)C1CCCCC1 (configuration not stated)
inactive: dose: 75.0 mg/kg/injection, schedule: Q01DX001 (ip), vehicle: other 100 % of control

Cc1ccc(S(=O)(=O)N(C)c2cc(Cl)c(I)c(Cl)c2)cc1
inactive: [6] 98 % of control | [7] 94 % of control | [8] 96 % of control

CN1CSCSC1
inactive: dose: 50.0 mg/kg/injection, schedule: Q01DX009 (ip), vehicle: saline 104 % of control | dose: 100.0 mg/kg/injection, schedule: Q01DX009 (ip), vehicle: saline 98 % of control | [9] 101 % of control | [10] 100 % of control | [11] 97 % of control

Oc1ccccc1C=Nc1cnc2ccccc2c1
inactive: [12] 95 % of control | [13] 98 % of control | [14] 95 % of control

Cc1ccc(C(=O)NO)cc1
inactive: dose: 100.0 mg/kg/injection, schedule: Q04DX003 (ip), vehicle: carboxymethylcellulose (CMC) 98 % of control | dose: 200.0 mg/kg/injection, schedule: Q04DX003 (ip), vehicle: carboxymethylcellulose (CMC) 90 % of control | dose: 400.0 mg/kg/injection, schedule: Q04DX003 (ip), vehicle: carboxymethylcellulose (CMC) 98 % of control

N=c1c2[nH]cnc2ncn1O
inactive: [12] 89 % of control | [13] 94 % of control | [14] 100 % of control

c1ccc2c(c1)Sc1cnccc1N2CC1CO1 (configuration not stated)
inactive: [2] 96 % of control | dose: 200.0 mg/kg/injection, schedule: Q04DX003 (ip), vehicle: saline 92 % of control | [5] 96 % of control

CCCCCCCCCCCCN=C(N)N/C(N)=N/S(=O)(=O)c1ccc(OCCC)cc1
inactive: [15] 106 % of control | [16] 100 % of control | [17] 95 % of control

COc1ccc(C2(Br)C(=O)NN=C2C)cc1 (configuration not stated)
inactive: [1] 95 % of control | [3] 100 % of control | [4] 95 % of control

CC(C)(C)c1cccc(S(=O)(=O)Oc2ccccc2[N+](=O)[O-])c1
inactive: [6] 103 % of control | [7] 93 % of control | [8] 95 % of control

CC1CC(C)(C)NCCNC(C)CC(C)(C)NCCN1 (configuration not stated)
inactive: dose: 12.5 mg/kg/injection, schedule: Q04DX002 (ip), vehicle: Klucel (hydroxypropylcellulose) (HPC) 97 % of control | dose: 25.0 mg/kg/injection, schedule: Q04DX002 (ip), vehicle: Klucel (hydroxypropylcellulose) (HPC) 94 % of control | dose: 50.0 mg/kg/injection, schedule: Q04DX002 (ip), vehicle: Klucel (hydroxypropylcellulose) (HPC) 94 % of control

N#Cc1ccc[nH]1
inactive: dose: 100.0 mg/kg/injection, schedule: Q01DX001 (sc), vehicle: carboxymethylcellulose (CMC) 121 % of control | dose: 177.0 mg/kg/injection, schedule: Q01DX001 (ip), vehicle: carboxymethylcellulose (CMC) 108 % of control | dose: 200.0 mg/kg/injection, schedule: Q01DX001 (sc), vehicle: carboxymethylcellulose (CMC) 110 % of control | dose: 266.0 mg/kg/injection, schedule: Q01DX001 (ip), vehicle: carboxymethylcellulose (CMC) 96 % of control | [14] 102 % of control

CC1CCCC[N-]1.CC1CCCC[N-]1.N#C[S-].N#C[S-].[Cu] (configuration not stated)
inactive: dose: 5.0 mg/kg/injection, schedule: Q01DX001 (ip), vehicle: saline 94 % of control | [18] 86 % of control | [19] 91 % of control | dose: 40.0 mg/kg/injection, schedule: Q01DX001 (ip), vehicle: saline 100 % of control

NC(N)=N/N=C/c1cccs1
inactive: dose: 15.0 mg/kg/injection, schedule: Q01DX Z (oral), vehicle: saline 90 % of control | dose: 30.0 mg/kg/injection, schedule: Q01DX Z (ip), vehicle: saline 90 % of control | dose: 30.0 mg/kg/injection, schedule: Q01DX Z (oral), vehicle: saline 92 % of control | dose: 60.0 mg/kg/injection, schedule: Q01DX Z (oral), vehicle: saline 92 % of control

CC(C)=CCCC(C)CCOc1ccc(C(C)C)cc1 (configuration not stated)
inactive: dose: 100.0 mg/kg/injection, schedule: Q04DX002 (ip), vehicle: saline with Tween-80 108 % of control | dose: 200.0 mg/kg/injection, schedule: Q04DX002 (ip), vehicle: saline with Tween-80 96 % of control | dose: 400.0 mg/kg/injection, schedule: Q04DX002 (ip), vehicle: saline with Tween-80 103 % of control

COC1OC(COS(C)(=O)=O)C(OS(C)(=O)=O)C(OS(C)(=O)=O)C1OS(C)(=O)=O (configuration not stated)
inactive: [9] 91 % of control and 100 % of control | [10] 93 % of control and 91 % of control | [11] 88 % of control and 94 % of control

CC(C)/C=C/C1(C(C)C)C(=O)NC(=S)NC1=O
inactive: dose: 75.0 mg/kg/injection, schedule: Q01DX001 (ip), vehicle: saline 95 % of control | dose: 150.0 mg/kg/injection, schedule: Q01DX001 (ip), vehicle: saline 100 % of control | dose: 300.0 mg/kg/injection, schedule: Q01DX001 (ip), vehicle: saline 98 % of control

O=C(Nc1ccc(Cl)c(C(F)(F)F)c1)Oc1cccnc1
inactive: dose: 25.0 mg/kg/injection, schedule: Q01DX009 (ip), vehicle: Klucel (hydroxypropylcellulose) (HPC) 94 % of control | [6] 92 % of control and 93 % of control

COc1nc(N)nc2nc(N)c(-c3ccc(N(CCO)CCO)cc3)nc12
inactive: [1] 95 % of control | [3] 96 % of control | [4] 95 % of control

O=[N+]([O-])c1ccc(NCSc2ccc(Cl)cc2)cc1
inactive: dose: 100.0 mg/kg/injection, schedule: Q04DX003 (ip), vehicle: other 101 % of control | dose: 200.0 mg/kg/injection, schedule: Q04DX003 (ip), vehicle: other 106 % of control | dose: 400.0 mg/kg/injection, schedule: Q04DX003 (ip), vehicle: other 108 % of control

NC(=O)C(O)(C(F)(F)F)C(F)(F)F
inactive: dose: 1.25 mg/kg/injection, schedule: Q01DX009 (ip), vehicle: saline 97 % of control | dose: 2.5 mg/kg/injection, schedule: Q01DX009 (ip), vehicle: saline 111 % of control | dose: 5.0 mg/kg/injection, schedule: Q01DX009 (ip), vehicle: saline 95 % of control | dose: 5.0 mg/kg/injection, schedule: Q04DX003 (ip), vehicle: saline 97 % of control | [18] 102 % of control | dose: 10.0 mg/kg/injection, schedule: Q04DX003 (ip), vehicle: saline 100 % of control | [19] 94 % of control

CC(=O)C(Br)C(C)=O.CC(=O)C(Br)C(C)=O.CC(=O)C(Br)C(C)=O.[Rh]
inactive: dose: 50.0 mg/kg/injection, schedule: Q01DX001 (ip), vehicle: other 97 % of control | dose: 100.0 mg/kg/injection, schedule: Q01DX001 (ip), vehicle: other 96 % of control | dose: 200.0 mg/kg/injection, schedule: Q01DX001 (ip), vehicle: other 94 % of control | dose: 400.0 mg/kg/injection, schedule: Q01DX001 (ip), vehicle: other 94 % of control

COC(=O)N/N=C/c1ccccc1Cl
inactive: [6] 108 % of control | [15] 93 % of control | [7] 121 % of control | [16] 104 % of control | [17] 96 % of control

— PubChem BioAssay AID248 (DTP/NCI, 2004)
